# What was measured:
# Type in all cases: cell-based, human
# [1] = tested on: Philadelphia chromosome-positive blast cells of CML patients in blast crisis, L-6 (b2a2) type junction; test: Colony formation of CML blast crisis patient cells expressing the b2a2 (L-6) junction; settings: 10 days in semi-solid culture (FIG. 2)
# Description: Leukemia cells were obtained from the marrow of the posterior iliac crest of five CML patients in blast crisis. The cells were diluted 1:2 in Iscove's modified Dulbecco medium (IMDM) to form a cell suspension. Philadelphia chromosome-positive blast cells were isolated by Ficoll-Hypaque density gradient sedimentation to remove non-mononuclear cells. Accordingly, the bone marrow cell suspension was gently overlayed on a Histopaque density gradient (Sigma Chemical Co., St. Louis, Mo.) in a 2:1 ratio, and then spun down for 30 min. at 1500 rpm and 18° C. Cells remaining in the interface layer after centrifugation were collected using a Pasteur pipet, and washed with IMDM at 1000 rpm and […] for 10 min.
# Cells plated into methyl cellulose semisolid media after 7-11 days of culture were recovered from the medium. Total RNA was isolated according to the procedure of Chomczynski et al, Anal. Biochem. 162, 156-159 (1987). The RNA ([…]) isolated from one patient having particularly exuberant cell growth was annealed with the 3' RT-PCR primer GCTTCACACC ATTCCCCATTGT (SEQ ID NO:10) complementary to 22 nucleotides of c-abl exon 2 for 30 minutes at 37° C. Following annealing of the 3' primer, the RNA was reverse transcribed with 500 units of Moloney murine leukemia virus reverse transcriptase at 37° C. for 1 hour. The reaction was stopped and the mixture diluted in 1 x Thermus aquaticus (Taq) polymerase buffer. A 5' primer, the 22 nucleotide oligomer CACAGCATTCCGCTGACCATCA (SEQ ID NO: 11) complementary to bcr exon 2 and additional c-abl exon 2 3' primer were added to a final concentration of 2 ng/μl each with 2.5 units of Taq polymerase for amplification of the cDNA fragments. Sixty cycles of PCR were performed in a Perkin Elmer Thermal Cycler by annealing at 55° C., synthesizing at 72° C. and denaturing at 95° C. The amplification product, corresponding to the b2a2 junction, was thereafter separated on a 2% agarose gel. The band containing the bcr-abl fragment was cut out and cleaned according to a standard technique utilizing a GENE-CLEAN™ kit (Bio 101, Inc.), cloned by blunt end ligation in the BLUESCRIPT SK vector (Stratagene Cloning Systems) linearized by SMA I digestion. Several individual clones were then sequenced using the SEQUENASE™ version 2.0 enzyme (United States Biochemical Corp., Cleveland, Ohio), according to the sequence protocol recommended by the manufacturer. Accordingly, the denatured bcr-abl DNA fragments were annealed with specific primers which flank the cloning site in the BLUESCRIPT SK vector, in the presence of SEQUENASE™ reaction buffer for 15 min. at 37° C. The primer-annealed fragments were incubated at room temperature with SEQUENASE™ version 2.0 enzyme and α-S^35 dAT at 37° C. Subsequently, labelled template-primer complexes were transferred to tubes containing A, T, C and G nucleotides (one nucleotide per tube) and incubated 5-30 min. at 37° C. The samples were then loaded on a previously prepared acrylamide gel, and run for approximately 10 hours. The sequencing gel was dryed, and the film exposed O/N. Sequence analysis of several of the individual clones identified the bcr-abl junction as having the cDNA sequence shown in FIG. 1 (SEQ ID NO:1). The arrow in the figure indicates the bcr-abl breakpoint junction, and the box delineates the 18 nucleotides corresponding to the junction, which forms a preferred target sequence for hybridization of antisense oligomer. The junction corresponds precisely to the L-6 type breakpoint reported by Shtivelman et al., Cell 47, 277 (1986), in which the bcr exon 2 is fused to c-abl exon 2.
# In a similar manner, L-6 type junctions were identified in the remaining CML blast crisis patients by hybridization of RT-PCR amplification products derived from blast crisis CML RNA using a synthetic 18-mer GAAGGGCTTC TTCCTTAT (SEQ ID NO:3) specific for the 18-nucleotide target sequence of the L-6 bcr-abl junction. […]
# [2] = tested on: normal hematopoietic progenitor cells (normal bone marrow MNC); test: CFU-GM colony formation of normal hematopoietic progenitor cells; settings: Table 3; 40 μg/ml at 0 h, 20 μg/ml 18 h later; 12 days; mean ± SD; control 263 ± 10
# Text: (§1) Normal bone marrow mononuclear cells (MNC) were obtained by aspiration from consenting volunteers and enriched for hematopoietic progenitors as previously reported by numerous investigators (Zamecnick et al., Proc. Natl. Acad. Sci. U.S.A. 83, 4143-4147 (1986); Caracciolo et al., J. Clin. Invest. 85, 55-61 (1990)). In brief, marrow cells were subjected to Ficoll-Hypaque density gradient sedimentation and then depleted of adherent monocyte-macrophage and T-lymphocytes by adherence to plastic Petri dishes and rosetting with neuraminidase-treated sheep red blood cells, respectively. Philadelphia chromosome-positive blast cells were isolated by Ficoll-Hypaque density gradient sedimentation from a CML patient in blast crisis (L-6 type junction). […] The residual non-blast cells had the morphological appearance of small lymphocytes. 25,000 MNC and 25,000 CML blast cells were combined and incubated with bcr-abl breakpoint-Specific antisense oligomer (SEQ ID NO:3) (40 μg/ml at h 0; 20 μg/ml 18 hours later) or with a 4 nucleotide mismatch bcr-abl antisense oligomer (SEQ ID NO:2) (40 μg/ml at 0 h; 20 μg/ml 18 hours later) or left untreated. […] At the end of the incubation period colonies were counted. […]
# [3] = tested on: CML blast crisis cells (L-6 type junction); test: CFU-L colony formation of CML blast crisis cells (Example 3); settings: Table 3; 40 μg/ml at 0 h, 20 μg/ml 18 h later; 12 days; mean ± SD; control 806 ± 70
# Text: Normal bone marrow mononuclear cells (MNC) were obtained by aspiration from consenting volunteers and enriched for hematopoietic progenitors as previously reported by numerous investigators (Zamecnick et al., Proc. Natl. Acad. Sci. U.S.A. 83, 4143-4147 (1986); Caracciolo et al., J. Clin. Invest. 85, 55-61 (1990)). In brief, marrow cells were subjected to Ficoll-Hypaque density gradient sedimentation and then depleted of adherent monocyte-macrophage and T-lymphocytes by adherence to plastic Petri dishes and rosetting with neuraminidase-treated sheep red blood cells, respectively. Philadelphia chromosome-positive blast cells were isolated by Ficoll-Hypaque density gradient sedimentation from a CML patient in blast crisis (L-6 type junction). […] The residual non-blast cells had the morphological appearance of small lymphocytes. 25,000 MNC and 25,000 CML blast cells were combined and incubated with bcr-abl breakpoint-Specific antisense oligomer (SEQ ID NO:3) (40 μg/ml at h 0; 20 μg/ml 18 hours later) or with a 4 nucleotide mismatch bcr-abl antisense oligomer (SEQ ID NO:2) (40 μg/ml at 0 h; 20 μg/ml 18 hours later) or left untreated. Four hours after the second addition of oligonucleotides to the cultures, cells were seeded into duplicate methylcellulose dishes containing IL-3 (20 U/ml) and GM-CSF (5 ng/ml) and allowed to grow for an additional 12 days. At the end of the incubation period colonies were counted.
# The data is shown in Table 3, below, wherein values represent mean ± standard deviation of duplicate control cultures (no oligonucleotide added) and duplicate experimental cultures from two separate experiments. Colony forming unit-granulocyte macrophage (CFU-GM)-derived colonies consisted of 50 or more cell aggregates, while CFU-GM-derived clusters were defined as aggregates of between 4 and 40 cells. These are normal hematopoietic colonies derived from progenitors with the capability to differentiate along the granulocytic and macrophage lineages. […]
# [4] = tested on: 1:1 mixtures of normal marrow progenitors and CML blast crisis cells; test: CFU-GM + CFU-L colony formation of 1:1 mixtures of normal marrow progenitors and CML blast crisis cells; settings: Table 3; 1:1 mixture; 40 μg/ml at 0 h, 20 μg/ml 18 h later; 12 days; mean ± SD; control 978 ± 24
# Text: as §1
# [5] = tested on: 1:1 mix of normal MNC and CML blast crisis cells; test: Morphology (Giemsa staining) of cells from residual colonies
# Text: as §1
substance,measurement,setting,value
SEQ ID NO:2: mismatched (4 nucleotide substitutions) bcr-abl antisense oligomer GAACGGCATC TACGTTAT (antisense GAACGGCATCTACGTTAT; further chemistry not given here) [reference compound],colonies of blast cells formed,[1],formed numerous colonies of blast cells
same,"Colonies or Clusters, CFU-GM",[2],265 ± 6 colonies or clusters
same,"Colonies or Clusters, CFU-L (colonies formed from CML blast crisis cells)",[3],786 ± 23 colonies or clusters
same,"Colonies or Clusters, CFU-GM + CFU-L",[4],900 ± 46 colonies or clusters
same,morphology of cells isolated from residual colonies,[5],heterogeneous and consisted of blast cells and a variety of differentiating elements

# From patent US5652222A, “Selective inhibition of leukemic cell proliferation by bcr-abl antisense oligonucleotides” (Temple University-of The Commonwealth System of Higher …, priority 1993, dated 1997)
